Data published in ChEMBL document CHEMBL4813951 (Eur J Med Chem, 2021).
Calls of active or inactive are those of the source. No cut-off for these calls is given here.

Columns and labels:
[1] = biological target: Histamine H1 receptor (Homo sapiens, UniProt P35367); test: Displacement of [3H]mepyramine from human histamine H1 receptor expressed in sf9 insect cell membranes co-expressing RGS4 incubated for 60 mins by microbeta scintillation counting method; parameters: species or system Membrane
[2] = biological target: T1, Histamine H2 receptor (Homo sapiens, UniProt P25021); test: Displacement of [3H]UR-DE257 from human histamine H2 receptor expressed in sf9 insect cell membranes co-expressing GSalphaS incubated for 60 mins by microbeta scintillation counting method; parameters: species or system Membrane
[3] = biological target: Histamine H3 receptor (Homo sapiens, UniProt Q9Y5N1); test: Displacement of [3H]UR-P129 from human histamine H3 receptor expressed in sf9 insect cell membranes co-expressing Galphai2/Gbeta1gamma2 incubated for 60 mins by microbeta scintillation counting method; parameters: species or system Membrane
[4] = biological target: T1, Histamine H2 receptor; test: Agonist activity at human histamine receptor expressed in sf9 insect cell membranes co-exprssing GsalphaS incubated for 90 mins [35S]GTPgammaS binding based microbeta scintillation counting analysis; format: functional, Membrane
[5] = biological target: T1, Histamine H2 receptor; test: Agonist activity at human histamine H2 receptor expressed in HEK293T cells co-expressing ELucC by beta arrestin2 recruitment assay; format: functional, cell-based
[6] = biological target: T1, Histamine H2 receptor; test: Agonist activity at human histamine H2 receptor expressed in HEK293T cells co-expressing ELucC assessed as intrinsic activity at >= 30 uM by beta arrestin2 recruitment assay relative to histamine; format: functional, cell-based; conditions: filed as agonist, dose microM >=30
[7] = biological target: T2, D(2) dopamine receptor (Homo sapiens, UniProt P14416); test: Displacement of [3H]N-methylspiperone from human D2L receptor expressed in HEK293T cells co-expressing CRE-Luc incubated for 60 mins by microbeta scintillation counting method; format: cell-based
[8] = biological target: T3, D(3) dopamine receptor (Homo sapiens, UniProt P35462); test: Displacement of [3H]N-methylspiperone from human D3 receptor expressed in HEK293T cells co-expressing CRE-Luc incubated for 60 mins by microbeta scintillation counting method; format: cell-based
[9] = biological target: T2, D(2) dopamine receptor; format: functional, cell-based, HEK293T
[10] = biological target: T3, D(3) dopamine receptor; test: Agonist activity at […] expressed in HEK293T cells co-expressing ELucC by beta arrestin2 recruitment assay; format: functional, cell-based
[11] = biological target: T1, Histamine H2 receptor; test: Agonist activity at human histamine H2 receptor expressed in sf9 insect cell membranes co-exprssing GsalphaS assessed as intrinsic activity at >=30 uM incubated for 90 mins [35S]GTPgammaS binding based microbeta scintillation counting analysis relative to histamine; format: functional; conditions: Membrane, filed as agonist, dose microM >=30, time 90.0 min
[12] = biological target: Histamine H4 receptor (Homo sapiens, UniProt Q9H3N8)
[13] = biological target: Histamine H2 receptor (Cavia porcellus, UniProt P47747); test: (§1) Agonist activity at guinea pig right atrium histamine H2 receptor assessed as increase in heart rate incubated for 30 mins in presence of cimetidine; format: functional, tissue-based, Right cardiac atrium
[14] = biological target: Histamine H2 receptor (Cavia porcellus) (UniProt P47747); test: Agonist activity at guinea pig right atrium histamine H2 receptor assessed as intrinsic activity incubated for 30 mins in presence of cimetidine relative to histamine; format: functional, tissue-based; conditions: Right cardiac atrium, filed as agonist
[15] = biological target: T1, Histamine H2 receptor; conditions: Sf9, Membrane, filed as agonist, time 90.0 min
[16] = Dissociation constant, pKa of compound in NaOH; format: physicochemical; conditions: NaOH solution
[17] = Dissociation constant, pKa1 of compound in HCL or HCL salt; format: physicochemical; conditions: HCl or HCl salt solution
[18] = Dissociation constant, pKa2 of compound in HCL or HCL salt; format: physicochemical; conditions: HCl or HCl salt solution
[19] = Dissociation constant, pKa of compound in aqueous solution in presence of EtOH by spectrometric method; conditions: aqueous solution with EtOH
[20] = Dissociation constant, pKa of compound in aqueous solution; format: physicochemical
[21] = Dissociation constant, pKa of compound in aqueous solution in presence of HCL; format: physicochemical; conditions: aqueous solution with HCl
[22] = biological target: Histamine H2 receptor (Cavia porcellus) (UniProt P47747); test: as §1; format: functional, tissue-based; conditions: Right cardiac atrium

T1 sequence (P25021 whole entry): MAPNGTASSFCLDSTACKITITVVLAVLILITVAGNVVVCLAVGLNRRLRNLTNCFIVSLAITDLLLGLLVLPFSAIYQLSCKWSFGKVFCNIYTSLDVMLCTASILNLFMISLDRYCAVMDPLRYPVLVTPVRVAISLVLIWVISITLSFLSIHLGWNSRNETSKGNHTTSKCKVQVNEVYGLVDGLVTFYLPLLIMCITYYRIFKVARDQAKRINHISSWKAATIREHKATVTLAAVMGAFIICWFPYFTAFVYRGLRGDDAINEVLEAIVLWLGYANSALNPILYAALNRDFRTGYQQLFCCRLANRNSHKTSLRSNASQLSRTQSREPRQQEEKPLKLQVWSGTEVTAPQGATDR
Sequence of Histamine H1 receptor (P35367 whole entry): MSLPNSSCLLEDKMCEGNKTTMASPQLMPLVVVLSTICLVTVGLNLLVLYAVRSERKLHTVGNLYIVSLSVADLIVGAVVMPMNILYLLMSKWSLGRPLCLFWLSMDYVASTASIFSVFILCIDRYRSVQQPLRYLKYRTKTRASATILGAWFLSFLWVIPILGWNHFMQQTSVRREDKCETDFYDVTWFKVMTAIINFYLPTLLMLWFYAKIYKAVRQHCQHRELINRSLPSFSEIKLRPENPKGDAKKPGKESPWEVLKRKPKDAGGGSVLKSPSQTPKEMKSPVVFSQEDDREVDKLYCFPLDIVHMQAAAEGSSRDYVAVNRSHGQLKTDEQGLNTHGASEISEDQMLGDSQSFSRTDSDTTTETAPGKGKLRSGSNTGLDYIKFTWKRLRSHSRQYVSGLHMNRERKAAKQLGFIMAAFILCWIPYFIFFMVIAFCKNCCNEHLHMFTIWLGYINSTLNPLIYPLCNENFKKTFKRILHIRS
Sequence of Histamine H4 receptor (Q9H3N8 whole entry): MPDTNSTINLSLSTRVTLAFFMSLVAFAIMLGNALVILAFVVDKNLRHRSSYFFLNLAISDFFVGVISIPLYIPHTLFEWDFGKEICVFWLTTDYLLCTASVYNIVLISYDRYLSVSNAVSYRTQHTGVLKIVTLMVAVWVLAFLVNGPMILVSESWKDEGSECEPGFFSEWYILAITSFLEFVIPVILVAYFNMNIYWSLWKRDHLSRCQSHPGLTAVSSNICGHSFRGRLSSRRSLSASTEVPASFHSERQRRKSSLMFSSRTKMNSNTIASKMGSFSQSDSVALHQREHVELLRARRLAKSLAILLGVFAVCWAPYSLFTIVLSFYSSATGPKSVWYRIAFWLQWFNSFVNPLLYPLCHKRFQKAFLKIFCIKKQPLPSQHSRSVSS
T3 sequence (P35462 whole entry): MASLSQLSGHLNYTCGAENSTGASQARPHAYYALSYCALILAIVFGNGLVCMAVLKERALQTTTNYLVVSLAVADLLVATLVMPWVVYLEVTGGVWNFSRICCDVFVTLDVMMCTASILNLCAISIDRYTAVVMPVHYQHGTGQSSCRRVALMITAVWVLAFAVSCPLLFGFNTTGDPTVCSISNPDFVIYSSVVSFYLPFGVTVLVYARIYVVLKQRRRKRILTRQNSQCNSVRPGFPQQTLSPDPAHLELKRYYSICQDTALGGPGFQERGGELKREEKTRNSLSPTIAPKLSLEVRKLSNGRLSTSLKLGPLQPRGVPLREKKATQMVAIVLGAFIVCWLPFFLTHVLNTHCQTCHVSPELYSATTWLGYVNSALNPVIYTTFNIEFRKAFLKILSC
T2 sequence (P14416 whole entry): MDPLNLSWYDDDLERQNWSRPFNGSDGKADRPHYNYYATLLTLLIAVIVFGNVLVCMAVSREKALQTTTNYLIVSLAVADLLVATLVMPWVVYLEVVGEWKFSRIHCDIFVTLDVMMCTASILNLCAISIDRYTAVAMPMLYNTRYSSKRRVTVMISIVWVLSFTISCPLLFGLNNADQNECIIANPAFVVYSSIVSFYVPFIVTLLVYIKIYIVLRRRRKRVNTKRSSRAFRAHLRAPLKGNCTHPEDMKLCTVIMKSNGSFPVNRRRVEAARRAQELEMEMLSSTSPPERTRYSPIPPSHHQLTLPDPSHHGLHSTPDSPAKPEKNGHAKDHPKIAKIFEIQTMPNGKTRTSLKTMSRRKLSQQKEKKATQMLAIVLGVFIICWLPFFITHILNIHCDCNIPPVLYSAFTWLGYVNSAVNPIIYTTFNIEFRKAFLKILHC
Sequence of Histamine H3 receptor (Q9Y5N1 whole entry): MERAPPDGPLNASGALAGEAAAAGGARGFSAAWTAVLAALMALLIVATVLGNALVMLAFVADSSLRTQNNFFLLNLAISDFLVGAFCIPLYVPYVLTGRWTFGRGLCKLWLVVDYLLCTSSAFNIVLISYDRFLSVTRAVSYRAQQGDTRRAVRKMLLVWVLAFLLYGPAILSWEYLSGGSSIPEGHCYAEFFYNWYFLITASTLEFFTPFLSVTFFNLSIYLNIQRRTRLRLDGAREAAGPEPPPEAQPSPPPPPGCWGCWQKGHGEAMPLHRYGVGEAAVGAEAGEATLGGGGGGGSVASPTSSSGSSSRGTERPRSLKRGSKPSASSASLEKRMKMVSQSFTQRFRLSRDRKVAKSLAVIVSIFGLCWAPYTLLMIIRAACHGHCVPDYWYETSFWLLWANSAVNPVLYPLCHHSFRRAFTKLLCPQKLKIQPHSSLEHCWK
Sequence of Histamine H2 receptor (Cavia porcellus, UniProt P47747) (P47747 whole entry): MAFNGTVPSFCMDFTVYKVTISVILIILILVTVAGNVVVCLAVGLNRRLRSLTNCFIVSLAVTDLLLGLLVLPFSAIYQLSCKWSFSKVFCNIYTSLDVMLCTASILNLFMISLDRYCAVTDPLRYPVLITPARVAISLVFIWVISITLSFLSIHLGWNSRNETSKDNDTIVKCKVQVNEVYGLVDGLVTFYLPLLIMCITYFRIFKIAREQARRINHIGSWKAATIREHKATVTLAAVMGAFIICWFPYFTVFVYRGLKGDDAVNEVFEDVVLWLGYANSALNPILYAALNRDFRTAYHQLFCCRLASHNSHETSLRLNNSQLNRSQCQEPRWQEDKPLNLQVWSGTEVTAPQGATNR
Sequence of Histamine H2 receptor (Cavia porcellus) (P47747 whole entry): as above

SMILES	Ki [1] [µM]	Ki [2] [µM]	Ki [3] [µM]	EC50 [4] [µM]	EC50 [5] [µM]	Ki [8] [µM]	Intrinsic activity [11]	Ki [12] [µM]	also measured
Cc1nc(N)sc1CCCN/C(N)=N/C(=O)NCC(C)C1CCCCC1 (stereo not given)	2.34	0.0398	10	0.0219	0.224	0.0437	0.65	1.91	Intrinsic activity [6]: 0.4; Ki [7]: 0.263 µM; EC50 [9]: 3.24 µM; EC50 [10]: 0.263 µM
CCCCCCNC(=O)/N=C(\N)NCCCc1sc(N)nc1C	7.76	0.0288	5.62	0.0389	0.0851	0.0141	0.6	8.13	EC50 [13]: 0.0158 µM; Intrinsic activity [14]: 0.95; Ki [7]: 0.562 µM; EC50 [9]: 1.74 µM; EC50 [10]: 0.0234 µM
Cc1nc(N)sc1CCCN/C(N)=N/C(=O)NCC(C)CCc1ccccc1 (stereo not given)	1.35	0.0631	9.12	0.0295	0.355	0.0457	0.69	3.24	Intrinsic activity [6]: 0.2; Ki [7]: 0.355 µM; EC50 [9]: 5.37 µM; EC50 [10]: 0.891 µM
CCCCCCNC(=O)/N=C(\N)Nc1cccc(-c2csc(N)n2)c1	–	0.692	11	–	–	1.29	–	9.55	Ki [7]: 2.51 µM; pKb [15]: 6.14
Cc1nc(N)sc1CCCN/C(N)=N/C(=O)NCC(c1ccccc1)C(C)C (stereo not given)	5.89	0.102	11.7	0.0309	0.158	–	0.52	5.89	Intrinsic activity [6]: 0.11
C[C@@H](NC(=O)/N=C(\N)NCCCc1ccccc1)c1ccccc1	–	–	–	–	–	–	–	–	pKa [16]: 7.96
Cc1nc(N)sc1CCCN/C(N)=N/C(=O)N[C@H](C)c1ccccc1	8.71	0.0178	43.7	–	0.0457	0.00617	–	13.5	pKa [17]: 4.68; pKa [18]: 7.47; EC50 [13]: 0.00759 µM; EC50 [10]: 0.0155 µM
Cc1nc(N)sc1C	–	–	–	–	–	–	–	–	pKa [16]: 6.28; pKa [19]: 6.29
N/C(=N\C(=O)NC1CCCCC1)Nc1cccc(-c2csc(N)n2)c1	–	4.47	–	–	–	–	–	13.5	pKb [15]: 5.4
N/C(=N\C(=O)Nc1ccccc1)Nc1cccc(-c2csc(N)n2)c1	–	372	–	–	–	–	–	64.6	pKb [15]: 4.76
Cc1csc(N)n1	–	–	–	–	–	–	–	–	pKa [16]: 5.77; pKa [20]: 5.95; pKa [21]: 4.64
Cc1nc(N)sc1CCCN/C(N)=N/C(=S)NCC(c1ccccc1)c1ccccc1	44.7	1.45	46.8	–	–	–	–	21.4	pEC50 [22]: inactive
CCCNC(=O)/N=C(\N)Nc1cccc(-c2csc(N)n2)c1	–	5.25	–	–	–	–	–	> 100	pKb [15]: 4.91
CCCNC(=O)/N=C(\N)NCC	–	–	–	–	–	–	–	–	pKa [16]: 8.31
Cc1nc(N)sc1CCCN/C(N)=N/C(=O)NCC(C)c1ccc(C(C)C)cc1 (stereo not given)	4.9	0.148	7.94	0.0347	0.282	–	0.59	2.63	Intrinsic activity [6]: 0.25
